The conditions of data set [1]: cited from earlier work.
Details of data set [2]: method as in 2 sources, ref 29 = [29]; PMID 16287231; doi:10.1021/bc049724g; Nakayama K.; Endo M.; Majima T. A Hydrophilic Azobenzene-Bearing Amino Acid for Photochemical Control of a Restriction Enzyme BamHI . Bioconjugate Chem. 2005 , 16 , 1360 – 1366 . 10.1021/bc049724g . ||| ref 33 = [33]; PMID 31495713; doi:10.1016/j.chembiol.2019.08.006; Kneuttinger A. C.; Straub K.; Bittner P.; Simeth N. A.; Bruckmann A.; Busch F.; Rajendran C.; Hupfeld E.; Wysocki V. H.; Horinek D.; et al. Light Regulation of Enzyme Allostery through Photo. The following applies: cited from earlier work.

Data set [3] is classed as physicochemical. The following applies: K3-APgly in PBS versus 10 in MeCN. The protocol:
For the potential application of K3-APgly in an active system, for example, for membrane fusion, the stability of the photoswitch to repeated light exposures (photocycling) is required. […] Finally, the peptide was irradiated with the 340 nm PSS and allowed to thermally relax, showing 65% recovery in 69 h.
Figure 4 Photocycling of K3-APgly between the dark-adapted, 340 and 435 nm PSS (left), thermal relaxation of the peptide after […] (middle) and distribution of the absorbance in the different states during cycling (right).

The next data set has as its system E3GY. Nature of the data set: CD thermal unfolding curves fitted to a dimeric coiled-coil binding model. Conditions: coiled coil with E3GY; for Kf (folding constant) / pKd: binding model at 20 °C; for pKd: read-out: Ku (unfolding constant). The protocol: CD melting curves measured at different concentrations were fitted to a coiled-coil binding model (Figures S2 and S3).[39]
CD spectra were recorded on a Jasco J-815 CD spectrometer fitted with a Peltier temperature controller. Spectra were recorded in a 2 mm quartz cuvette at 20 °C using either PBS or low-salt buffer (2 mM NaCl, 10 mM phosphate) at pH 7.4. Spectra were recorded between 190 and 280 nm with 1 nm intervals at a scan rate of 100 nm/min with five subsequent spectra averaged to minimize noise. […] Thermal melting curves were generated by recording θ222nm between 5 and 90 °C at a speed of 1 °C/min. If irradiated samples were used, samples were reilluminated every 30 min. Melting curves were measured at four different concentrations and fitted using the Fitdis software package.[39]

Data set [4] is described as follows: HPLC quantification of trans/cis isomer ratio at photostationary states. Conditions: measurements repeated three times. It is filed as physicochemical. The protocol:
As azobenzene photoswitches based on phenylglycine are not known in the literature, the photoswitching behavior of Fmoc-APgly (10) was analyzed first in order to assess its suitability as a photoswitch (Figure 3A–C). […] The largest ratio of […]-to-cis isomers via photoisomerization was achieved through irradiation with 385 nm light (83.2 ± 0.2% […]), with higher wavelengths showing very similar distributions.
(§1) Figure 3 HPLC analysis of the photoswitching behavior of Fmoc-APgly, and the effect of azobenzene isomerization in peptide K3-APgly. (A) Chromatography traces of Fmoc-APgly in the dark state and after irradiation with different wavelengths of light, complete traces can be found in Figure S5. (B) Thermal relaxation of Fmoc-APgly from cis to trans as followed by HPLC. (C) Percentage of the trans and cis isomers in solution at the different PSSs; error bars indicate difference in deviation between repeat samples. (D) UV–vis spectra showing the spectra of K3-APgly in the dark and after irradiation with 340 or 435 nm light. (E) CD spectra showing the effect of photoisomerization on the structure of K3-Apgly by itself and as a coiled-coil with E3GY. […] Illumination and relaxation studies of the amino acid were performed in MeCN at 20 °C. Peptide spectra were recorded at 20 °C in PBS with [peptide] = 50 μM. […]
(§2) Analytical HPLC was performed using a Shimadzu Prominence-i LC-2030C 3D system fitted with a 4.6 × 50 mm Phenomenex Kinetex Evo C18 column. The isomeric ratio of 10 was quantified using a linear gradient of 10–90% MeCN in water containing 0.1% TFA as buffer. For each measurement, 2 μL of a 200 mM solution of 10 was injected, and measurements were repeated three times for accuracy.

A short description of data set [5]: Thermal relaxation of Fmoc-APgly from cis to trans followed by HPLC. It is filed as physicochemical. The following applies: after irradiation with 340 nm light, in MeCN at 20 °C.
Text: as §1, §2

Setting [6] is: 340 nm irradiated state (predominantly cis).
Setting [7] is: dark state (predominantly trans).

pKd: −log10 of the molar value. Read-outs that look alike come from different tables or passages of the source. Starred links: 1 amine or outer side, 2 acyl side, 3 side chain; linkers in the order of their positions; H or OH if unused. Non-standard residues stand in square brackets, D forms with d. Residues, ends and D or L forms follow the SMILES beside them. X1 = O=C([C@@H](N[*:1])c1ccc(N=Nc2ccccc2)cc1)[*:2]

`N[C@@H](Cc1ccc(N=Nc2ccccc2)cc1)C(=O)O` [APhe1, Phenylazo-phenylalanine]: the “reported half-life of thermal relaxation” value in data set [1] is 26.67 h. In addition, the “PSS, cis isomer” value is on record as 89% in data set [2] (using a LED light source) and 79% in data set [2] (using a mercury lamp).
As to `CC[C@H](C)[C@H](NC(=O)[C@H](CCCCN)NC(C)=O)C(=O)N[C@@H](C)C(=O)N[C@@H](C)C(=O)N[C@@H](CC(C)C)C(=O)N[C@@H](CCCCN)C(=O)N[C@@H](CCC(=O)O)C(=O)N[C@@H](CCCCN)C(=O)N[C@H](C(=O)N[C@@H](C)C(=O)N[C@@H](C)C(=O)N[C@@H](CC(C)C)C(=O)N[C@@H](CCCCN)C(=O)N[C@@H](CCC(=O)O)C(=O)N[C@@H](CCCCN)C(=O)N[C@H](C(=O)N[C@@H](C)C(=O)N[C@@H](C)C(=O)N[C@@H](CC(C)C)C(=O)N[C@@H](CCCCN)C(=O)N[C@@H](CCC(=O)O)C(N)=O)[C@@H](C)CC)c1ccc(N=Nc2ccccc2)cc1` [K3-APgly] (Ac-KIAALKEK[X1]AALKEKIAALKE-NH2), the “thermal relaxation, times slower than that observed for 10 in MeCN” value in data set [3] is reported as 1.6. Moreover, in the data set with E3GY (setting [6]), the “Kf (folding constant)” value was 2.97 × 10^5 M^–1 and the pKd was 5.47. Moreover, in the data set with E3GY (setting [7]), the “Kf (folding constant)” value was 1.38 × 10^6 M^–1 and the pKd was 6.14. Further, in the data set with E3GY (ratio dark state to 340 nm PSS, 20 °C), the “dark/340 nm PSS (fold difference in folding constant / binding affinity)” value is 4.65.
As for `O=C(N[C@H](C(=O)O)c1ccc(N=Nc2ccccc2)cc1)OCC1c2ccccc2-c2ccccc21` [compound 10, N-Fmoc-4-(phenylazo)-L-phenylglycine], the trans isomer stood at 94.2 ± 0.2% in data set [4] (dissolved in MeCN, kept under dark conditions) and 83.2 ± 0.2% in data set [4] (irradiation with 385 nm light, MeCN, 20 °C). Besides, the cis isomer in data set [4] (irradiated with 340 nm light, MeCN, 20 °C) is recorded as 91.3 ± 0.6%. The “half-life of thermal relaxation cis to trans” value was 28.17 h in data set [5] and “≈ 28 h” in data set [5] (same value in hours).
With `N[C@@H](Cc1ccc(N=Nc2ccc(C(=O)O)cc2)cc1)C(=O)O` [APhe2], in data set [1], the “reported half-life of thermal relaxation” value is 35 h. Also, the “PSS, cis isomer” value in data set [2] (using a mercury lamp) is 81%.
